This is an account of results in patent publication US20230303672A1, “METASTATIC CANCER TREATMENT OR PREVENTION” (OXFORD BROOKES UNIVERSITY, priority 2020, published 2023).

The test system of experiment [1] is MCF7 (metastatic) cells adhering to endothelial cells. The experiment can be described thus: Endothelial static adhesion assay with or without antibodies and peptides. It is filed as cell-based. The note with it: peptide and corresponding peptide conjugate; compared to BT474 (non-metastatic) cells; 12 replicates; FIG. 15. The protocol:
MCF7 and HUVEC cells were grown in 24 well cell culture plates to 70% confluency the cells were treated with Dharmafect™ transfection reagent and 5 uM of plectin siRNAs or scrambled negative control for 24 hrs. Some HUVEC and MCF7 cells were non-treated. HUVEC cells were activated by treating with 10 ug/ml TNFa in complete medium for 2 hrs at 37° C., 5% CO2. MCF7 breast cancer cells were grown in T75 flasks until 70% confluency and treated with 10 mg/ml HTPS in complete medium for 2 hrs at 37° C., 5% CO2. HTPS was removed and cells were washed with 10 ml of PBS 5 times until the wash ran clear. Cells were scraped and counted. 20,000 cells/ml was prepared. MCF7 cells were treated with either 500 ul of EVs isolated using the extraction method outlined above, or 500 ul of PBS for 10 mins at RT. EVs or PBS was removed and 1 ml of MCF7 cells were added to HUVEC cells and incubated at 37° C., 5% CO2 for 10 mins, before cells were removed and wells gently washed with warmed PBS to remove any unbound cells. Wells were then fixed with 4% PFA for 10 mins at RT. Fixative was removed and the wells washed 3 times with PBS and then coverslips were mounted using fluoromount. Total adhered cells per coverslip were counted.
This was as above but using 1/1000 of stock antibodies and peptides stated below.

Experiment [2] relates to HPA-positive BC cells binding to endothelial cells. The following applies: incubating cells with HPA or BSA-GalNAc; 'It has been shown'; cited from earlier work.
For experiment [3], the system named is MCF7 breast cancer cell adhesion to endothelial cells (HUVEC). The experiment can be described thus: Endothelial static adhesion assay with recombinant plectin. It is filed as cell-based. The following applies: MCF7 treated with 0.1 ug/ml recombinant plectin for 10 mins, compared to untreated, FIG. 6. The protocol:
Coverslips with activated endothelial cells were prepared as above. MCF7 breast cancer cells were grown in T75 flasks until 70% confluency and treated with 10 mg/ml HTPS in complete medium for 2 hrs at 37° C., 5% CO2. HTPS was removed and cells were washed with 10 ml of PBS 5 times until the wash ran clear. Cells were scraped and counted. 20,000 cells/ml was prepared. MCF7 cells were treated with either 0.1 ug/ml recombinant plectin, (2b Scientific SKU RPC754Hu01 (residues Asp 175-Pro 400 (SEQ ID NO: 1) of human plectin Uniprot ID Q15149, corresponding to the actin-binding domain), in PBS or PBS for 10 mins at RT. Recombinant plectin or PBS were removed from cells and 20,000 cells/ml of MCF7 cells were added per well and incubated for 10 mins, cells were removed and wells gently washed with warmed PBS to remove any unbound cells. Wells were then fixed with 4% PFA for 10 mins at RT. Fixative was removed and the wells washed 3 times with PBS and then coverslips were mounted using fluoromount. Total adhered cells per coverslip were counted.
Sterilised 13 mm D glass coverslips were placed in wells of 24 well plate and 100,000 HUVEC cells were seeded. Cells were incubated at 37° C. with 5% CO2 atmosphere until cells became a monolayer. HUVEC cells were activated by treating with 10 ug/ml TNFa in complete medium for 2 hrs at 37° C., 5% CO2.

In the case of AVIYGGVQ [SEQ7], the “MCF7 (metastatic) cells binding to endothelial cells (peptide)” value in experiment [1] was “specifically reduces MCF7 (metastatic) cells binding to endothelial cells in a concentration dependant manner”.

For “BSA-GalNAc: GalNAc sugar conjugated to BSA”, the “BC cell binding to endothelial cells” value in experiment [2] is on record as “inhibits cells binding”.

B1: recombinant plectin: 2b Scientific RPC754Hu01, residues Asp 175-Pro 400 (SEQ ID NO: 1) of human plectin, the actin-binding domain (protein, listed as Homo sapiens)
chain: DERDRVQKKTFTKWVNKHLIKAQRHISDLYEDLRDGHNLISLLEVLSGDSLPREKGRMRFHKLQNVQIALDYLRHRQVKLVNIRNDDIADGNPKLTLGLIWTIILHFQISDIQVSGQSEDMTAKEKLLLWSQRMVEGYQGLRCDNFTSSWRDGRLFNAIIHRHKPLLIDMNKVYRQTNLENLDQAFSVAERDLGVTRLLDPEDVDVPQPDEKSIITYVSSLYDAMP
Consider B1, for which the “Cell adhesion of MCF7 to endothelial cells” value in experiment [3] is “significantly decreases”; in experiment [3] (listed as recombinant plectin fragment) it was “significantly reduced”.
